Each structure is given as a SMILES string. pIC50: −log10 of the molar value.

One data set concerns HeLa. In words: Cell proliferation assay (cell-titer blue). The data set is classed as cell-based. The settings on record: for pIC50: cell viability, cell-titer blue, up to 48 hours. The procedure:
(§1) HeLa, MCF-7, HCT-116, and CEM-C7 were obtained from the American Type Culture Collection (Manassas, Va., USA). All adherent cell lines were maintained in Dulbecco's modified Eagle's medium (Mediatech) with 100 U/ml penicillin (Invitrogen), 100 μg/ml streptomycin (Invitrogen), 0.25 μg/ml amphotericin B (Invitrogen), and 10% fetal bovine serum (USA Scientific) and incubated at 37° C. with 5% CO2. CEM cells were maintained in RPMI-1640 media supplemented with 100 U/ml penicillin, 100 μg/ml streptomycin, 0.25 μg/ml amphotericin B, and 10% fetal bovine serum and incubated at 37° C. with […].
(§2) Cells were plated at a density of 7,000-13,000/well in 200 μl of media overnight in a 96-well plate. Each (phosphine)gold(I)-indole was added to wells in a dose-dependent manner (0.01-100 μM). Cells were treated with compounds for variable time periods (8-48 hours). With adherent cell lines, medium was removed from the wells and then 100 μl of fresh medium was added into each well followed by the addition of 20 μl of cell titer-blue reagent (Promega). Cells were incubated with reagent for 1-4 hrs and the optical density of samples was read at 560 nm using a microplate reader. The background absorbance of dye with media was subtracted from each sample. Cell viability was then normalized against cells treated with DMSO. IC50 values were obtained using a fit of the data to Equation 1: Y=100%/[1+(IC50/Inhibitor)] (1)
(§3) where y is the fraction of viable cells, IC50 is the concentration of inhibitor that inhibits 50% cell growth, and Inhibitor is the concentration of compound tested.
(§4) The cellular effects of these (phosphine)gold(I) indoles were tested against several cancer cell lines including HeLa (cervical cancer), MCF-7 (breast cancer), HCT-116 (colon cancer), and CEM-C7 (leukemia). The dose-dependency of each modified indole on cell viability was assessed using a cell-titer blue assay as previously described. In these experiments, cells were exposed to variable concentrations of each (phosphine)gold(I) indole (0.01-100 μM) for up to 48 hours and then assessed for viability.

The next data set relates to CEM-C7. In words: Cell proliferation / cytotoxicity assay. It counts as cell-based. Particulars: for pIC50: cell viability, cell-titer blue, up to 48 hours. The procedure:
as §1, §2, §3, §4
Defining this mechanism of cell death is important as necrosis can cause various side-effects including septic shock and kidney failure that can obviously compromise patient health.

For another data set, the target named is BSA (Bos taurus, UniProt P02769). In words: Reactivity of Au(I)-compounds with BSA thiol (DTNB -SH titer). On the set-up: species or system bovine. The settings on record: 120 μM compound, Au(I)/BSA ratios up to 4:1, one hour, 37° C., PBS. The procedure:
PBS was used as the reaction buffer.
We tested the ability of various Au(I)-complexes to non-selectively react with BSA. […] P2 resin was effective in retaining Au(I)-containing compounds including compound 3 and compound 4. However, BSA was not retained in the resin as >95% of the BSA loaded into the Penefsky column is recovered in the eluant. […] Values obtained from reactions containing BSA incubated with the various Au(I) complexes were compared to identical reactions containing BSA alone and eluted through Penefsky columns.

A further data set relates to HCT-116. In words: Cell proliferation assay (cell-titer blue). The settings on record: cell viability, up to 48 hours, read-out: IC50 HCT116. The data set is classed as cell-based. The procedure:
as §1, §2, §3, §4

The next data set relates to MCF-7. In words: Cell proliferation assay (cell-titer blue). It counts as cell-based. The settings on record: cell viability, up to 48 hours. The procedure:
as §1, §2, §3, §4

The next data set relates to HeLa cells. The settings on record: HeLa, data not shown. The procedure:
HeLa cells were plated at a density of 250,000-300,000 cells/mL. After 24 hr cells, the cells were irradiated in a dose dependent manner (0-4 Gy) using a ^137Cs gamma source. After treatment, the cells were trypsinized and plated at a density between 300-4000 cells in 60 mm dishes. Cells were allowed to grow colonies (1 colony≧50 cells) for 10-14 days, stained with 0.25% crystal violet, and manually counted to measure the number of colonies. Survival fractions were normalized against positive controls (colony formation with no radiation) and plotted as the log percent survival versus dose of radiation. Each experiment was performed an average of four (4) times with cells propagated on several different days.
In this case, we measured the effects of combining these (phosphine)gold(I) indoles with ionizing radiation (IR), a widely used therapy used to treat solid tumors. […] After this time frame, media containing the (phosphine)gold(I) indole was removed and replaced with fresh media. The cells were then irradiated in a dose-dependent fashion from 0 to 6 Gy. Cell viability was assessed using a clonogenic assay that measures colony formation and thus accurately defines the cytotoxic effects of IR exposure. […] The initial linear phase is particularly important as this reflects repair of non-lethal damage inflicted by clinically-relevant doses of IR (˜2 Gy).

Chain of BSA (P02769 25-607): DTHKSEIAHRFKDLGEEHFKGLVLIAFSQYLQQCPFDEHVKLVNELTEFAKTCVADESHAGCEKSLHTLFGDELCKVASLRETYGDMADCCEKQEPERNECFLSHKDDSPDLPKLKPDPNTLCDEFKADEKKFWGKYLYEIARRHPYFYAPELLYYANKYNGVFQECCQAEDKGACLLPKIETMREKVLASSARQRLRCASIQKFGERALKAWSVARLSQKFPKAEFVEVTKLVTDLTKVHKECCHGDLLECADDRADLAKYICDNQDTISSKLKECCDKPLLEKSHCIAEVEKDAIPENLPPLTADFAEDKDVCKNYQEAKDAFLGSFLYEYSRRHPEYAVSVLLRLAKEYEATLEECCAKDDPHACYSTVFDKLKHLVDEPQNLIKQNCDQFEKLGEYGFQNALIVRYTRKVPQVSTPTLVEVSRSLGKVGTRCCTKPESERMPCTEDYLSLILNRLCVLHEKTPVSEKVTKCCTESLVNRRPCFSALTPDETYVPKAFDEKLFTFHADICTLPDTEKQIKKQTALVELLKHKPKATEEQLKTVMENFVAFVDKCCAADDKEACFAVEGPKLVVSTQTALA

For `[Au+].[Br-].c1ccc(P(c2ccccc2)c2ccccc2)cc1` [BrAuPPh3, reference compound], in the data set on HeLa (up to the highest concentration of 100 μM), the “anti-cancer (cytostatic or cytotoxic) effects” value is recorded as “does not produce significant cytostatic or cytotoxic effects”. Also, in the data set with CEM-C7 (CEM-C7 cells), the “mechanism of cell death (propidium iodide uptake)” value was “causes necrosis”. In addition, the LD50 in the data set with CEM-C7 (cytotoxic effect, leukemia cell line CEM-C7) stood at 0.22 ± 0.05 µM. Further, the “reactivity with BSA (relative thiol content, -SH titer)” value on BSA was “facile interactions”.

`CC(C)(C)OC(=O)n1ccc2c[c]([Au-][P+](c3ccccc3-c3ccccc3)(C3CCCCC3)C3CCCCC3)ccc21` [Compound 5, 5-{[1,1′-biphenyl]-2-yldicyclohexylphosphine aurate(I)}-tert-butyl H-indole-1-carboxylate]: the negative logarithm of the IC50 (pIC50) (in general, the IC50 on a negative log10 scale, so that one unit is a factor of ten) is 5.47 in the data set on HCT-116, 5.62 with HeLa, 5.64 in the data set on MCF-7 and 5.68 with CEM-C7.

In the case of `CC(C)(C)C(=O)OCn1ccc2c[c]([Au-][P+](c3ccccc3-c3ccccc3)(C3CCCCC3)C3CCCCC3)ccc21` [Compound 6, 5-{[1,1′-biphenyl]-2-yldicyclohexylphosphine aurate(I)}-(1H-indol-1-yl)methyl pivalate], the pIC50 in the data set on HCT-116 is 5.74; with HeLa it was 6.18; in the data set on MCF-7 it was 6.02; with CEM-C7 it was 6.38. In the data set with HeLa cells, the “enhancement of the cell killing effects of IR” value is given as “do not enhance the cell killing effects of IR”.

On to `Cn1ccc2c[c]([Au-][P+](c3ccccc3-c3ccccc3)(C3CCCCC3)C3CCCCC3)ccc21` [Compound 7, 5-{[1,1′-biphenyl]-2-yldicyclohexylphosphine aurate(I)}-1-methyl-1H-indole], for which the pIC50 with HCT-116 is 6.42; in the data set on HeLa it was 6.34; in the data set on MCF-7, 5.49; with CEM-C7, 5.84. In the data set with HeLa cells, the “enhancement of the cell killing effects of IR” value is reported as “do not enhance the cell killing effects of IR”.

Source of the values: patent publication US9821173B2, “Anti-cancer agents and methods of use” (Case Western Reserve University, priority 2013, dated 2017).
